Results reported in US5536723A, “S-nitroso derivatives of hydrazinoacetic acids, 1-[(acylthio and (mercapto)-1-oxoalkyl]-1,2,34-Tetrahydroquinoline-2-carboxylic acids and alanyl prolines and isoquinolines” (Brigham & Women's Hospital, priority 1994, dated 1996).
Peptide text beside a SMILES is read from it.

Columns and labels:
platelets = assay: platelet aggregation in PRP induced by ADP; format: cell-based, human; details: 11 μM ADP
Experimental: FIG. 7 depicts a graph showing the effect of S-nitrosocaptopril on platelet aggregation. Platelets in PRP were incubated with S-nitrosocaptopril over a range of concentrations for three minutes, after which ADP was added to a final concentration of 11 uM. The maximal rate of aggregation was measured and plotted as a percentage of that observed in the absence of S-nitrosocaptopril. Each point represents the mean ±SEM of five experiments each performed in duplicate.
Platelets. Volunteers who had not ingested acetylsalicylic acid for at least ten days provided venous blood within one hour of use. […] Platelet counts were determined using a Coulter counter (Model ZM; Coulter Electronics, Hialeah, Fla.) and adjusted with platelet-poor plasma (PPP) to 1.5×10^8 platelets/ml prior to use.
Platelet Aggregation. Platelet aggregation was monitored using a standard nephelometric technique (Born and Cross, J. Physiol (London) 168:178-195 (1963)) in which PRP was incubated at 37° with a final concentration of 11 μM ADP and stirred at 900 rpm in a Payton dual channel aggregometer (Payton Associates, Inc., Buffalo, N.Y.). Aggregation was quantitated by measuring either the maximal rate of change of light transmittance or the extent of change of light transmittance. […]

bovine femoral artery = assay: relaxation of isolated bovine femoral artery rings contracted with norepinephrine; details: norepinephrine-contracted; FIG. 2
Experimental: FIG. 2 depicts a graph showing the effect of S-nitrosocaptopril on the contraction of bovine femoral arteries to norepinephrine.
(§1) Blood Vessel Preparation. Bovine coronary or femoral arteries were obtained from an abattoir immediately after sacrifice of two- to four-week-old calves. Immediately after removal, the vessel was placed in ice-cold physiologic salt solution (PSS) containing 118.3 mM NaCl, 4.7 mM KCl, 2.5 mM CaCl2, 1.2 mM MgSO4, 1.2 mM KH2 PO4, 25.0 mM NaHCO3, 11.1 mM glucose, and 0.026 mM calcium disodium (ethylenedinitrilo)-tetraacetate. The vessels were then cleaned of adventitial tissue and cut into rings of approximately 5 mm lengths. When called for by the protocol, endothelium was removed from a ring by gently rubbing the luminal surface with a watchmaker's forceps. Vascular rings with intact endothelium were then suspended in organ chambers containing 25 ml of PSS at 37° aerated with 95% O2 -5% CO2. The rings were connected to force transducers (Grass FT03C, Quincy, Mass.) and changes in isometric force recorded continuously (Grass Polygraph Model 79B) over a period of 90 minutes. The optimal length-tension relationship was determined for each ring by observing the response to 10^-6 M norepinephrine after increments in tension of 0.5 gm. The functional integrity of the endothelium was assessed by contracting the vessel with 10^-6 M norepinephrine and then observing the response to 3×10^-7 M acetylcholine chloride.
Vascular ring segments with intact endothelium were […] contracted with a concentration of norepinephrine inducing a half-maximal response. After a stable contraction had been achieved, the tissue was exposed to increasing concentrations of S-nitrosocaptopril in cumulative half-log increments. […] The apparent IC50 is approximately 1 μM.

[1] = tested on: bovine femoral artery, response to bradykinin; assay: response of the bovine femoral artery to bradykinin
Experimental: as §1
In the bovine femoral artery contracted with a concentration of norepinephrine inducing a half-maximal response, bradykinin induced a biphasic response.

[2] = tested on: bovine femoral artery, contraction to angiotensin I; assay: contraction of the bovine femoral artery to angiotensin I
Experimental: The data are expressed as a percentage of the maximal response to norepinephrine (10^-6 M) and are shown as mean ±SEM in each group (n=7).
as §1

[3] = arterial pressure in the anesthetized rabbit; format: in vivo; details: 1 mM solution infused in an ear vein, 0.02 to 2.2 ml/min
Experimental: A 1 mM solution of S-nitrosocaptopril was infused in an ear vein of the rabbit at rates from 0.02 to 2.2 ml/min and the phasic and mean arterial pressure recorded in the femoral artery.

[4] = tested on: guanylate cyclase in arterial smooth muscle; details: Horowitz 1983; cited from earlier work
platelet aggregation = details: Loscalzo 1985; cited from earlier work
[5] = tested on: soluble guanylate cyclase; details: Ignarro 1980; cited from earlier work

## C[C@H](CS)C(=O)N1CCCC1C(=O)O (stereo in doubt) [captopril, D-3-mercapto-2-methylpropanoyl-L-proline]
platelets
  inhibitory effect on platelet aggregation (in words): no inhibitory effect
Bovine femoral artery
  relaxation response (in words): no relaxation response
[1]; 10^-6 M
  effect on the response to bradykinin (in words): Neither response to bradykinin was affected
[2]
  inhibition of contractions to angiotensin I, S-nitrosocaptopril versus captopril (in words): equally inhibited contractions to angiotensin I
[3]
  effect on blood pressure (in words): no effect on blood pressure

## O=C1O[C@H]([C@@H](O)CO)C(O)=C1O [Ascorbate]
[4]
  activation of guanylate cyclase in arterial smooth muscle (in words): totally ineffective

## O=N[O-].[Na+] [NaNO2]
[3]
  effect on blood pressure (in words): no effect on blood pressure

## CC(=O)N[C@@H](CSN=O)C(=O)O [S-nitroso-N-acetyl cysteine]
Platelet aggregation
  inhibition of platelet aggregation (in words): extremely potent inhibitor of platelet aggregation

## NC(CSN=O)C(=O)O (stereo not shown) [S-nitrosothiol of cysteine]
[5]
  activation of soluble guanylate cyclase (in words): capable of activating soluble guanylate cyclase
[4]
  activation of guanylate cyclase in arterial smooth muscle (in words): potent activators of guanylate cyclase

## N[C@@H](CCC(=O)N[C@@H](CSN=O)C(=O)NCC(=O)O)C(=O)O [S-nitrosothiol of glutathione]
[5]
  activation of soluble guanylate cyclase (in words): capable of activating soluble guanylate cyclase
[4]
  activation of guanylate cyclase in arterial smooth muscle (in words): potent activators of guanylate cyclase

## CC(C)(SN=O)C(N)C(=O)O (stereo not shown) [S-nitrosothiol of penicillamine]
[5]
  activation of soluble guanylate cyclase (in words): capable of activating soluble guanylate cyclase
[4]
  activation of guanylate cyclase in arterial smooth muscle (in words): potent activators of guanylate cyclase

## NC(N)=NCCC[C@H](NC(=O)[C@H](Cc1ccccc1)NC(=O)[C@@H]1CCCN1C(=O)[C@H](CO)NC(=O)[C@H](Cc1ccccc1)NC(=O)CNC(=O)[C@@H]1CCCN1C(=O)[C@@H]1CCCN1C(=O)[C@@H](N)CCCN=C(N)N)C(=O)O [bradykinin] (H-RPPGFSPFR-OH)
[1]; norepinephrine-contracted, higher concentrations
  response to bradykinin at higher concentrations (in words): increase in tension which was not affected by removal of the endothelium
[1]; norepinephrine-contracted, lower concentrations
  response to bradykinin at lower concentrations (in words): relaxations that were abolished by removal of the endothelium
